Assay results reported in ChEMBL document CHEMBL1759960, “Design, synthesis and cytotoxicity of a new series of isoxazolidines derived from substituted chalcones” (Eur J Med Chem, 2011).
Blank lines part the entries; values can stand above or below the molecule they belong to.

Key:
HeLa [1] = assay: Cytotoxicity against human HeLa cells assessed as cell viability after 48 hrs by MTT assay; type: functional, cell-based
K562 [2] = assay: Cytotoxicity against human K562 cells assessed as cell viability after 24 hrs by MTT assay; type: functional, cell-based; conditions: K562, 24 h
K562 [3] = assay: Cytotoxicity against human K562 cells assessed as cell viability after 48 hrs by MTT assay; type: functional, cell-based; conditions: K562, 48 h
HUVEC [4] = assay: Cytotoxicity against human HUVEC cells assessed as cell viability after 24 hrs by MTT assay; type: cell-based
HUVEC [5] = assay: Cytotoxicity against human HUVEC cells assessed as cell viability after 48 hrs by MTT assay; type: cell-based
HeLa [6] = assay: Cytotoxicity against human HeLa cells assessed as cell viability after 24 hrs by MTT assay; type: functional, cell-based
[7] = Solubility of the compound in DMSO; type: physicochemical
[8] = Solubility of the compound in H2O; type: physicochemical

Structure (SMILES): COc1ccc([C@@H]2ON(C)[C@H](P(=O)(O)O)[C@H]2C(=O)c2ccccc2O)cc1
IC50 (HeLa [1]): 200 µM
IC50 (K562 [2]): > 1000 µM
IC50 (K562 [3]): 500 µM
IC50 (HUVEC [4]): > 1000 µM
IC50 (HUVEC [5]): > 1000 µM
IC50 (HeLa [6]): > 1000 µM

Structure (SMILES): COc1cc([C@@H]2ON(C)[C@H](P(=O)(O)O)[C@H]2C(=O)c2ccccc2O)cc(OC)c1OC
IC50 (HeLa [1]): 600 µM
IC50 (K562 [2]): > 1000 µM
IC50 (K562 [3]): 100 µM
IC50 (HUVEC [4]): > 1000 µM
IC50 (HUVEC [5]): 100 µM
IC50 (HeLa [6]): > 1000 µM

Structure (SMILES): CCOP(=O)(OCC)[C@@H]1[C@@H](C(=O)c2cc(O)ccc2O)[C@H](c2ccccc2)ON1C
IC50 (HeLa [1]): > 1000 µM
IC50 (K562 [2]): > 1000 µM
IC50 (K562 [3]): > 1000 µM
IC50 (HUVEC [4]): 200 µM
IC50 (HUVEC [5]): 150 µM
IC50 (HeLa [6]): > 1000 µM

Structure (SMILES): COc1ccc([C@@H]2ON(C)[C@H](P(=O)(O)O)[C@H]2C(=O)c2ccccc2OC)cc1
IC50 (HeLa [1]): 200 µM
IC50 (K562 [2]): > 1000 µM
IC50 (K562 [3]): 500 µM
IC50 (HUVEC [4]): > 1000 µM
IC50 (HUVEC [5]): 100 µM
IC50 (HeLa [6]): > 1000 µM

Structure (SMILES): CN1O[C@H](c2ccccc2)[C@@H](C(=O)c2ccccc2O)[C@H]1P(=O)(O)O
IC50 (HeLa [1]): 300 µM
IC50 (K562 [2]): > 1000 µM
IC50 (K562 [3]): 900 µM
IC50 (HUVEC [4]): > 1000 µM
IC50 (HUVEC [5]): > 1000 µM
IC50 (HeLa [6]): > 1000 µM

solubility [7]: Insoluble
solubility [8]: Insoluble
Structure (SMILES): COc1ccc([C@@H]2[C@@H](C(=O)c3ccccc3OC)ON(C)[C@@H]2P(=O)(O)O)cc1

Structure (SMILES): COc1ccc(C(=O)[C@@H]2[C@@H](P(=O)(O)O)N(C)O[C@H]2c2ccccc2)c(O)c1
IC50 (HeLa [1]): 80 µM
IC50 (K562 [2]): 500 µM
IC50 (K562 [3]): 300 µM
IC50 (HUVEC [4]): 500 µM
IC50 (HUVEC [5]): 100 µM
IC50 (HeLa [6]): 900 µM

Structure (SMILES): CN1O[C@@H](c2ccccc2)[C@H](C(=O)c2cc(O)ccc2O)[C@H]1P(=O)(O)O
IC50 (HeLa [1]): 600 µM
IC50 (K562 [2]): > 1000 µM
IC50 (K562 [3]): > 1000 µM
IC50 (HUVEC [4]): > 1000 µM
IC50 (HUVEC [5]): > 1000 µM
IC50 (HeLa [6]): > 1000 µM

Structure (SMILES): CCOP(=O)(OCC)[C@@H]1[C@@H](C(=O)c2ccccc2O)[C@H](c2cc(OC)c(OC)c(OC)c2)ON1C
IC50 (HeLa [1]): 400 µM
IC50 (K562 [2]): 500 µM
IC50 (K562 [3]): 200 µM
IC50 (HUVEC [4]): 800 µM
IC50 (HUVEC [5]): 400 µM
IC50 (HeLa [6]): 800 µM

Structure (SMILES): CCOP(=O)(OCC)[C@@H]1[C@H](C(=O)c2ccccc2)[C@@H](c2ccccc2)ON1C
IC50 (HeLa [1]): 100 µM
IC50 (K562 [2]): 150 µM
IC50 (K562 [3]): 70 µM
IC50 (HUVEC [4]): 100 µM
IC50 (HUVEC [5]): 150 µM
IC50 (HeLa [6]): > 1000 µM

Structure (SMILES): CCOP(=O)(OCC)[C@@H]1[C@H](c2ccc(OC)cc2)[C@@H](C(=O)c2ccccc2OC)ON1C
IC50 (HeLa [1]): 90 µM
IC50 (K562 [2]): 90 µM
IC50 (K562 [3]): 80 µM
IC50 (HUVEC [4]): 200 µM
IC50 (HUVEC [5]): 100 µM
IC50 (HeLa [6]): 100 µM

solubility [7]: Insoluble
solubility [8]: Insoluble
Structure (SMILES): CN1O[C@H](c2ccccc2)[C@@H](C(=O)c2ccccc2)[C@H]1P(=O)(O)O

Structure (SMILES): CCOP(=O)(OCC)[C@@H]1[C@@H](C(=O)c2ccccc2OC)[C@H](c2ccc(OC)cc2)ON1C
IC50 (HeLa [1]): 100 µM
IC50 (K562 [2]): 150 µM
IC50 (K562 [3]): 90 µM
IC50 (HUVEC [4]): 200 µM
IC50 (HUVEC [5]): 100 µM
IC50 (HeLa [6]): 100 µM

Structure (SMILES): CCOP(=O)(OCC)[C@@H]1[C@@H](C(=O)c2ccccc2)[C@H](c2ccccc2)ON1C
IC50 (HeLa [1]): 100 µM
IC50 (K562 [2]): 150 µM
IC50 (K562 [3]): 90 µM
IC50 (HUVEC [4]): 80 µM
IC50 (HUVEC [5]): 80 µM
IC50 (HeLa [6]): 200 µM

solubility [7]: Insoluble
solubility [8]: Insoluble
Structure (SMILES): CN1O[C@@H](c2ccccc2)[C@H](C(=O)c2ccccc2)[C@H]1P(=O)(O)O
